Here are results for one molecule from article PMC6562610, “Inhibition of Hedgehog Signaling in Fibroblasts, Pancreatic, and Lung Tumor Cells by Oxy186, an Oxysterol Analogue with Drug-Like Properties” (Cells, 2019).

Structures are written as SMILES. Entries after “also recorded” stand apart in the source; their conditions may differ.

Assay [1] relates to Gli1 transcriptional activity in NIH3T3-E1 cells. Kind of assay: Gli responsive luciferase reporter trans-activated by exogenous Gli1. The settings on record: 72 h. In kind it is cell-based, mouse. The protocol: NIH3T3-E1 and Sufu^−/− cells cultured in 24-well plates at 90% confluence were transiently transfected with 0.1 µg of Gli response-element reporter (pGL3b-8xGli-Luciferase) plasmid, and 10 ng of pTK-Renilla-Luciferase plasmid with or without co-transfection with 10 ng of Gli1 overexpression vector, pSRα-Gli1, as previously described using Lipofectamine LTX Plus transfection reagent (Invitrogen). Twenty-four h after transfection, cells were treated with test agents for 72 h. Then the firefly and Renilla luciferase activities were measured using a dual luciferase kit (Promega, Madison, WI, USA) and a GloMax-96 Microplate Luminometer. The firefly luciferase activities were normalized to the Renilla luciferase activities. Data are reported as the mean of triplicate determinations ± SD.
Figure 5 Oxy186 acts downstream of Smo. (a) Sufu^−/− mouse embryonic fibroblast (MEF) cells were treated with DMEM containing 10% FBS in the presence or absence of Oxy186 (10 µM). After 72 h, RNA was extracted and analyzed by Q-RT-PCR for the expression of Hh target genes Gli1, Ptch1, and Hip, normalized to Oaz1 expression. […] Luciferase activity was measured and normalized to the Renilla luciferase activity. […]

For a further assay, the system named is PANC-1 cells. Kind of assay: Cell counting assay, PANC-1. The format is cell-based, human. Particulars: 96 h. On the procedure: (§1) A549 and H2030 cells cultured in 12-well plates at 20% confluence were treated with Oxy186, HPI-1, Gant61, or GDC0449 for 96 hours and then trypsinized and suspended in fresh medium. An aliquot of cell suspension was applied to a hemocytometer and counted under a microscope.
(§2) Figure 6 Inhibition of human pancreatic and lung cancer cell proliferation by Oxy186. (a,c) A549, (b) and (d) H2030, (e) PANC-1, and (f) CAPAN-1 cells were treated with the compounds as indicated in RPMI 1640 (a–d) or DMEM (e,f) containing 5% FBS for 96 h and then were trypsinized and counted. Data from a representative experiment are reported as the mean of triplicate determinations ± SD (* p < 0.05 vs. Control; ** p < 0.01 vs. control).

For assay [2], the system named is Hh target genes, Gli1 and Ptch1. Kind of assay: Induction of Hh target genes by oxysterol alone in NIH3T3-E1 cells, Q-RT-PCR. In kind it is cell-based, mouse. Particulars: up to 10 µM, no CM. The protocol: Total RNA was extracted with the RNeasy Plus Mini Kit from Qiagen, according to the manufacturer’s instructions. One microgram of RNA was reverse-transcribed using an iScript Reverse Transcription Supermix from Bio-Rad, to make single-stranded cDNA. The cDNAs were then mixed with Qi SYBR Green Supermix (Bio-Rad, Hercules, CA, USA) for quantitative RT-PCR assay using a Bio-Rad I-cycler IQ quantitative thermocycler. All PCR samples were prepared in triplicate wells in a 96-well plate. After 40 cycles of PCR, melt curves were examined in order to ensure primer specificity. Fold changes in gene expression were calculated using the ΔΔCt method. Primers used for mouse were as follows: Oaz1 (5’-CCACTGCTTCGCCAGAGAG-3’) and (5’-CCCGGACCCAGGTTACTA-3’), Gli1 (5’-[…]-3’ and 5’-[…]-3’), Ptch1 (5’-CCATCGGCGACAAGAACC-3’ and 5’-[…]-3’), Hip (5’-[…]-3’ and 5’-[…]-3’), and Abca1 (5’-[…]-3’ and 5’-[…]-3’). […]
Figure 3 Inhibition of ligand-induced Hedgehog signaling. […] After 72 h, RNA was extracted and analyzed by Q-RT-PCR for the expression of Hh target genes Gli1 (a,b,d) and Ptch1 (c), and normalized to Oaz1 expression. […] Luciferase activity was measured and normalized to the Renilla luciferase activity. […]

A further assay relates to CAPAN-1 cells. The experiment in a line: Cell counting assay, CAPAN-1. The format is cell-based, human. Particulars: 96 h. On the procedure: as §1, §2

For `C[C@]12CC[C@H](O)C[C@@H]1CC[C@@H]1[C@@H]2CC[C@@]2(C)[C@H]1CC[C@@H]2[C@](C)(O)CCc1ccc(F)cc1` [Oxy186, (3S,5S,8R,9S,10S,13S,14S,17S)-17-((R)-4-(4-fluorophenyl)-2-hydroxybutan-2-yl)-10,13-dimethylhexadecahydro-1H-cyclopenta[a]phenanthren-3-ol], the “Inhibition of Gli responsive luciferase reporter trans-activated by over expressed exogenous Gli1” value in assay [1] is “significantly inhibited”. In addition, the Anti-proliferation effect entry in the assay with PANC-1 cells is recorded as “significant anti-proliferation effects”; in the assay with CAPAN-1 cells, “significant anti-proliferation effects; also recorded: moderate anti-proliferative effects”. Also, the “Induction of Hh target genes Gli1 and Ptch1” value in assay [2] is “not”.
